Measured values from patent US20240398783A1, “Compounds and Pharmaceutical Compositions Comprising Inhibitors of Amyloid Peptide Interactions with Glycosaminoglycans, Methods of Treatment and Use Thereof” (Gismo Therapeutics, Inc., priority 2021, published 2024).
Counter-ions that a name gives are not always drawn.

biological target: Alpha-Synuclein Protofibril binding to purified human brain membranes (Homo sapiens, UniProt P37840); assay: Inhibition of protofibrillar alpha-synuclein binding to purified human brain cell membranes (ELISA); settings: Alpha-Synuclein/Membrane Activity (IC-50), alpha-synuclein protofibrils
Experimental: Purified human brain cell membranes were prepared by differential centrifugation as follows. Five grams of frozen human brain postmortem tissue (obtained from University of Kentucky Alzheimer's Disease Center Tissue Bank) was homogenized in 50 ml HEPES-Buffered sucrose (0.32M sucrose, 4 mM HEPES pH7.4, protease inhibitors) with a motor driven glass-teflon homogenizer. After removing nuclear and cell debris by centrifugation of homogenates at 1,000×g for 10 min at 4 degree Celsius, post-nuclear supernatant was centrifuged at 100,000×g for 30 minutes to yield the crude membrane pellet. Crude membrane pellet was re-suspended in 0.32M sucrose, then centrifuged again at 100,000×g for 30 minutes to yield washed membrane pellet. Membrane pellet was resuspended in sterile PBS (pH7.4), quickly frozen, and kept in aliquots at −80 degrees Celsius. This preparation contains human brain cell membranes. Protein concentration was measured with BCA protein assay kit (Pierce Cat. No. 23227). Purified brain membranes were diluted to 0.01 mg/ml in PBS (pH 7.4) and then added to a 96 well polystyrene ELISA plate (NUNC Cat. No. 449824; 100 μl per well). Plates were incubated Over Night (ON) at 4 degrees Celsius. Following the incubation, the plate was washed consecutively, by immersion, with de-ionized water and PBS (pH 7.4). The ELISA plate was then blocked with nonfat milk (2%, 200 μl per well) for 2 hours at Room Temperature (RT). Following blocking, the plate was washed with de-ionized water then PBS (pH 7.4). GBAPs were dissolved and diluted in PBS (pH 6.5, supplemented with 0.1% BSA) at desired concentrations, added to the ELISA plates coated with brain membranes (100 μl per well) and incubated for 2 hours at RT with gentle shaking. Following incubation, the plate was washed with de-ionized water and three times with PBS (pH 6.5) plus Tween. Bound GBAP was detected by a monoclonal antibody specific for that GBAP, followed by incubation with secondary antibody conjugated to horseradish peroxidase (HRP). Antibody was diluted in PBS (pH6.5 supplemented with 1% BSA). Following each incubation with antibody, the plate was washed with de-ionized water and three times with PBS (pH6.5) wash buffer containing 0.1% Tween. The peroxidase substrate chromogen, TMB (Dako Cat. No. S1599) was added (100 μl per well) to the ELISA plate and incubated at room temperature. After 5 minutes ELISA Stop Solution (hydrochloric acid 1N, sulfuric acid 3N) was added (100 μl per well) to stop the peroxidase catalyzed colorimetric reaction. The Optical Density of the samples was measured at 450 nm using an ELISA plate reader (BioTek Synergy H1). Following color development, the % inhibition compared to control was determined. IC-50s were calculated using GraphPad Prism software.
The assay was performed as described in Example 49, with the following modifications. Following to coating the plates with human brain membranes, plates were washed as described. The compounds were dissolved in DMSO at 10 mM final concentration and further diluted prior to assay. DMSO concentration in the screening well was up to 2%. Individual compounds were co-incubated with alpha-synuclein on plates coated with brain membranes. Protofibrillar Alpha-synuclein were prepared as described in Example 45. Protofibrillar Alpha-synuclein diluted in PBS (pH 6.5, supplemented with BSA, 0.1%) was added to the ELISA plate (100 μl per well) and incubated for 2 hours at RT with gentle shaking. Following the incubation, the plate was washed with de-ionized water and three times with PBS (pH 6.5) plus Tween. Bound alpha-synuclein was detected by Anti-Alpha-synuclein Monoclonal Antibody 211 (Santa Cruz Cat. No. sc-12767), followed by secondary anti-IgG antibody conjugated to HRP (R&D System, Cat. No. HAF007). Following to color development with TMB, as described in Example 49, the Optical Density of the samples was measured at 450 nm using an ELISA plate reader. […]

Compared with Clc1ccc2c(N/N=C/c3ccc(-n4cccn4)cc3)ccnc2c1 [Compound 3, (E)-4-((E)-(4-(1H-pyrazol-1-yl)benzylidene)hydrazono)-7-chloro-1,4-dihydroquinoline], Clc1ccc2c(N/N=C/c3ccc(-n4ccnc4)cc3)ccnc2c1 [Compound 38, 4-(2-(4-(1H-imidazol-1-yl)benzylidene)hydrazineyl)-7-chloroquinoline dihydrochloride] is 2.6-fold lower in IC50: 7.34 µM for the first, 2.79 µM for the second.

First: C[N+](C)(C)Cc1ccc(/C=N\Nc2ccnc3ccc(Cl)cc23)cc1 [Compound 4, (Z)-1-(4-((2-(6-chloroquinolin-4-yl)hydrazineylidene)methyl)phenyl)—N,N,N-trimethylmethanaminium iodide]
Second: CN1CCN(Cc2ccc(/C=N/Nc3ccnc4cc(Cl)ccc34)cc2)CC1 [Compound 7, (E)-7-chloro-4-(2-(4-((4-methylpiperazin-1-yl)methyl)benzylidene)hydrazinyl)quinolone]
The IC50 of the first is 3.9-fold lower: 10.7 µM for the first, 42.1 µM for the second. The first is the more potent here.

Going from Fc1ccc2c(N/N=C/c3ccc(CN4CCOCC4)cc3)ccnc2c1 [Compound 6, (E)-4-(4-((2-(7-fluoroquinolin-4-yl)hydrazono)methyl)benzyl)morpholine] to Clc1ccc2c(N/N=C/c3ccc(-n4ccnc4)nc3)ccnc2c1 [Compound 14, (E)-4-(2-((6-(1H-imidazol-1-yl)pyridin-3-yl)methylene)hydrazineyl)-7-chloroquinoline hydrochloride], the IC50 rises from 3.36 µM to 6.51 µM (1.9-fold).

First: COc1cc2nccc(N/N=C/c3ccc(-n4ccnc4)c(OC)c3)c2cc1OC [Compound 13, (E)-4-(2-(4-(1H-imidazol-1-yl)-3-methoxybenzylidene)hydrazineyl)-6,7-dimethoxyquinoline phosphate]
Second: CC(=NNc1ccnc2cc(Cl)ccc12)c1ccc(-n2ccnc2)cc1 [Compound 36, 4-(2-(1-(4-(1H-imidazol-1-yl)phenyl)ethylidene)hydrazineyl)-7-chloroquinoline phosphate]
The IC50 of the first is 2.3-fold lower: 4.03 µM for the first, 9.46 µM for the second.

Cc1ncn(-c2ccc(/C=N\Nc3ncnc4cc(Cl)ccc34)cn2)c1C [Compound 15, 7-chloro-4-(2-((6-(4,5-dimethyl-1H-imidazol-1-yl)pyridin-3-yl)methylene)hydrazineyl)quinazoline hydrochloride] and Cc1ncn(-c2ccc(Nc3ncnc4cc(Cl)ccc34)cn2)c1C [Compound 25, 7-chloro-N-(6-(4,5-dimethyl-1H-imidazol-1-yl)pyridin-3-yl)quinazolin-4-amine] are within 1.5-fold of each other in IC50: 3.06 µM for the first, 3.4 µM for the second.

First: C/C(=N\Nc1ncnc2cc(Cl)ccc12)c1ccc(-n2cnc(C)c2C)nc1 [Compound 16, 7-chloro-4-(2-(1-(6-(4,5-dimethyl-1H-imidazol-1-yl)pyridin-3-yl)ethylidene)hydrazineyl)quinazoline phosphate]
Second: CC(=NNc1ccnc2cc(Cl)ccc12)c1ccc(-n2cnc(C)c2C)nc1 [Compound 22, 7-chloro-4-(2-(1-(6-(4,5-dimethyl-1H-imidazol-1-yl)pyridin-3-yl)ethylidene)hydrazineyl)quinoline]
The IC50 of the first is 3.3-fold lower: 3.25 µM for the first, 10.6 µM for the second.

First: C/C(=N\Nc1ncnc2cc(Cl)ccc12)c1ccc(-n2cc[n+](C)c2)nc1 [Compound 17, (E)-1-(5-(1-(2-(7-chloroquinazolin-4-yl)hydrazineylidene)ethyl)pyridin-2-yl)-3-methyl-1H-imidazol-3-ium iodide phosphoric acid salt]
Second: C/C(=N\Nc1nncc2cc(Cl)ccc12)c1ccc(-n2cc(C)nc2C)nc1 [Compound 24, (E)-6-chloro-1-(2-(1-(6-(2,4-dimethyl-1H-imidazol-1-yl)pyridin-3-yl)ethylidene)hydrazineyl)phthalazine]
The IC50 of the first is 3.3-fold higher: 13.1 µM for the first, 4.03 µM for the second. The second is the more potent here.

Going from Clc1ccc2c(Nc3ccc(-n4cncn4)nc3)ncnc2c1 [Compound 34, N-(6-(1H-1,2,4-triazol-1-yl)pyridin-3-yl)-7-chloroquinazolin-4-amine phosphoric acid salt] to Clc1ccc2c(Nc3ccc(-n4cncn4)nc3)ccnc2c1 [Compound 44, N-(6-(1H-1,2,4-triazol-1-yl)pyridin-3-yl)-7-chloroquinolin-4-amine], the IC50 rises from 4.38 µM to 22.3 µM (5.1-fold). The first is the more potent here.

CCN1CCN(c2ccc(Nc3ccnc4cc5ccccc5cc34)cc2)CC1 [Compound 39, N-(4-(4-ethylpiperazin-1-yl)phenyl)benzo[g]quinolin-4-amine] and Cc1ncn(-c2ncc(Nc3ncnc4cc(Cl)ccc34)cc2O)c1C [Compound 40, 5-((7-chloroquinazolin-4-yl)amino)-2-(4,5-dimethyl-1H-imidazol-1-yl)pyridin-3-ol phosphoric acid salt] are within 1.5-fold of each other in IC50: 45.8 µM for the first, 34.5 µM for the second.

same assay, conditions: alpha-synuclein protofibrils, read-out: Alpha-Synuclein/Membrane Activity (IC-50)

First: Cc1cc(-n2ccnc2)ccc1/C=N/Nc1ccnc2cc(Cl)ccc12 [Compound 1, (E)-4-((E)-(4-(1H-imidazol-1-yl)-2-methylbenzylidene)hydrazono)-7-chloro-1,4-dihydroquinoline]
Second: Clc1ccc2c(Nc3ccc(-n4ccnc4)nc3)ncnc2c1 [Compound 41, N-(6-(1H-imidazol-1-yl)pyridin-3-yl)-7-chloroquinazolin-4-amine]
The IC50 of the first is 1.7-fold higher: 10.1 µM for the first, 5.8 µM for the second.

First: C/C(=N\Nc1ncnc2cc(Cl)ccc12)c1ccc(-n2cc(C)nc2C)nc1 [Compound 18, (E)-7-chloro-4-(2-(1-(6-(2,4-dimethyl-1H-imidazol-1-yl)pyridin-3-yl)ethylidene)hydrazineyl)quinazoline phosphoric acid salt]
Second: C/C(=N\Nc1ncnc2cc(F)ccc12)c1ccc(-n2cnc(C)c2C)nc1 [Compound 21, (E)-4-(2-(1-(6-(4,5-dimethyl-1H-imidazol-1-yl)pyridin-3-yl)ethylidene)hydrazineyl)-7-fluoroquinazoline]
The IC50 of the first is 2.1-fold higher: 3.73 µM for the first, 1.8 µM for the second.

Compared with C/C(=N\Nc1ncnc2cc(Cl)ccc12)c1ccc(-n2cc(C)nc2C)nc1 [Compound 27, (E)-7-chloro-4-(2-(1-(6-(2,4-dimethyl-1H-imidazol-1-yl)pyridin-3-yl)ethylidene)hydrazineyl)quinazoline hydrochloride], CC(=NNc1ncnc2cc(Cl)ccc12)c1ccnc(-n2cnc(C)c2C)c1 [Compound 28, 7-chloro-4-(2-(1-(2-(4,5-dimethyl-1H-imidazol-1-yl)pyridin-4-yl)ethylidene)hydrazineyl)quinazoline] is 2.3-fold lower in IC50: 7.31 µM for the first, 3.17 µM for the second. The second is the more potent here.
